Results reported in ChEMBL document CHEMBL1158875, “Plakinidine D, a new pyrroloacridine alkaloid from two ascidians of the genus Didemnum” (J Nat Prod, 1997).
Calls of active or inactive are those of the source. The rule behind the calls is not given here.

System: HCT-116
Experiment: Cytotoxicity against human HCT116 cells at 5 ug/mL
Type: functional, cell-based

Nc1c2c(c3nc4ccccc4c4c3c1N=C4)NCCC2=O
Activity: Active
